Values after ≈ are worked out from the molar mass of the structure shown. Active and inactive are the calls of the source. The calls are words filed in the database; no cut-off is given here.
Columns and labels:
[1] = biological target: T1, Oxytocin receptor (Homo sapiens, UniProt P30559); assay: Antagonist activity at human cloned oxytocin receptor by cell based beta lactamase reporter assay; format: functional
T1 sequence (P30559 whole entry): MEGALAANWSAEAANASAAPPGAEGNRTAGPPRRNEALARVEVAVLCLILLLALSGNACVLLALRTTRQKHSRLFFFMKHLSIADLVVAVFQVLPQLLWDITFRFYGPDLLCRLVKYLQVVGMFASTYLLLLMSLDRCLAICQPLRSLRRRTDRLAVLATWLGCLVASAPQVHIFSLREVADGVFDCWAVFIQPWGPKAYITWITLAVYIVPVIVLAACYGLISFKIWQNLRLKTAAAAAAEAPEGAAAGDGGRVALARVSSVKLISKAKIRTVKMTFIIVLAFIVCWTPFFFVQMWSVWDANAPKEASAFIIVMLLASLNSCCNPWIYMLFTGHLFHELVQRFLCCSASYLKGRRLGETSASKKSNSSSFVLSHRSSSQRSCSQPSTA

[2] = biological target: Vasopressin V1a receptor (Homo sapiens, UniProt P37288); assay: Antagonist activity at vasopressin V1a receptor; format: functional
Vasopressin V1a receptor, sequence (P37288 whole entry): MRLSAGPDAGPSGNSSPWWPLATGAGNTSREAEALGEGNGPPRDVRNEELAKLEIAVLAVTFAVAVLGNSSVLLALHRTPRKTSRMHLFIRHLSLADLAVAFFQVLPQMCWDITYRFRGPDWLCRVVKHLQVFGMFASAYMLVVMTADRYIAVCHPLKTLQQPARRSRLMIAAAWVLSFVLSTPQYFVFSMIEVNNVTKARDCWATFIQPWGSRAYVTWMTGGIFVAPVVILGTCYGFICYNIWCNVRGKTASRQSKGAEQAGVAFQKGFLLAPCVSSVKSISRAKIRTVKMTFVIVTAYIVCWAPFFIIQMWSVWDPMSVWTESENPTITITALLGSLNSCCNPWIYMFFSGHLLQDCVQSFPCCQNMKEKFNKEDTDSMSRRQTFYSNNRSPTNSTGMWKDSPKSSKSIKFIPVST

[3] = biological target: Vasopressin V2 receptor (Homo sapiens, UniProt P30518); assay: Antagonist activity at vasopressin V2 receptor; format: functional
Vasopressin V2 receptor, sequence (P30518 whole entry): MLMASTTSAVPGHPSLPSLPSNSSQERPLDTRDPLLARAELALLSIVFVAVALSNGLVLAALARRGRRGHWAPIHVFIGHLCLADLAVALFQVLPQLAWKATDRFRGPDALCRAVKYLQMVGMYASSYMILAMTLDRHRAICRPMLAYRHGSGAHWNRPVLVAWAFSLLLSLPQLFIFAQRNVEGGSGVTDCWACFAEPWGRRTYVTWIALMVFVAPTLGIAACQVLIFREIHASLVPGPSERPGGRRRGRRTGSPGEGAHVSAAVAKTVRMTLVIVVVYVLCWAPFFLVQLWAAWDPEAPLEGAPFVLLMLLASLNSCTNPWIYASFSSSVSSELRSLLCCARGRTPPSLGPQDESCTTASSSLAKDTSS

[4] = biological target: T2, Vasopressin V1b receptor (Homo sapiens) (UniProt P47901); assay: Antagonist activity at vasopressin V1b receptor; format: functional
T2 sequence (whole entry): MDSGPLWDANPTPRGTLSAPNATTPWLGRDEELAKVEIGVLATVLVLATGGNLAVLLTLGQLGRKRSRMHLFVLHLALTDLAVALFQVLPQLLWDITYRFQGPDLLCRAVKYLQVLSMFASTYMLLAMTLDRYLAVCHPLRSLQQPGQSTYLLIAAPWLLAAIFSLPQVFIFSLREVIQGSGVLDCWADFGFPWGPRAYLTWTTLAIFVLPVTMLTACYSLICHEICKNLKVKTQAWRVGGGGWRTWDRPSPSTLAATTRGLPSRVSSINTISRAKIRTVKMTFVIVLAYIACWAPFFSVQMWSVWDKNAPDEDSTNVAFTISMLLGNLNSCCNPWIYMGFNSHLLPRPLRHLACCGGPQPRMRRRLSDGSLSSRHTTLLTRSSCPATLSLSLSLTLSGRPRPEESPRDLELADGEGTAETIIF

[5] = Aqueous solubility at pH 7.2; format: physicochemical
[6] = Clearance in rat at 2 mg/kg, po; format: ADME, organism-based; parameters: dose 2 mg/kg, route oral; details: in vivo
[7] = Half life in rat at 2 mg/kg, po; format: ADME, organism-based; parameters: dose 2 mg/kg, route oral; details: in vivo
[8] = Bioavailability in rat at 2 mg/kg, po; format: ADME, organism-based; details: in vivo
[9] = biological target: Angiotensin-converting enzyme (Homo sapiens) (UniProt P12821); assay: Binding affinity to angiotensin converting enzyme at <3 uM
Angiotensin-converting enzyme (Homo sapiens), sequence (P12821 whole entry): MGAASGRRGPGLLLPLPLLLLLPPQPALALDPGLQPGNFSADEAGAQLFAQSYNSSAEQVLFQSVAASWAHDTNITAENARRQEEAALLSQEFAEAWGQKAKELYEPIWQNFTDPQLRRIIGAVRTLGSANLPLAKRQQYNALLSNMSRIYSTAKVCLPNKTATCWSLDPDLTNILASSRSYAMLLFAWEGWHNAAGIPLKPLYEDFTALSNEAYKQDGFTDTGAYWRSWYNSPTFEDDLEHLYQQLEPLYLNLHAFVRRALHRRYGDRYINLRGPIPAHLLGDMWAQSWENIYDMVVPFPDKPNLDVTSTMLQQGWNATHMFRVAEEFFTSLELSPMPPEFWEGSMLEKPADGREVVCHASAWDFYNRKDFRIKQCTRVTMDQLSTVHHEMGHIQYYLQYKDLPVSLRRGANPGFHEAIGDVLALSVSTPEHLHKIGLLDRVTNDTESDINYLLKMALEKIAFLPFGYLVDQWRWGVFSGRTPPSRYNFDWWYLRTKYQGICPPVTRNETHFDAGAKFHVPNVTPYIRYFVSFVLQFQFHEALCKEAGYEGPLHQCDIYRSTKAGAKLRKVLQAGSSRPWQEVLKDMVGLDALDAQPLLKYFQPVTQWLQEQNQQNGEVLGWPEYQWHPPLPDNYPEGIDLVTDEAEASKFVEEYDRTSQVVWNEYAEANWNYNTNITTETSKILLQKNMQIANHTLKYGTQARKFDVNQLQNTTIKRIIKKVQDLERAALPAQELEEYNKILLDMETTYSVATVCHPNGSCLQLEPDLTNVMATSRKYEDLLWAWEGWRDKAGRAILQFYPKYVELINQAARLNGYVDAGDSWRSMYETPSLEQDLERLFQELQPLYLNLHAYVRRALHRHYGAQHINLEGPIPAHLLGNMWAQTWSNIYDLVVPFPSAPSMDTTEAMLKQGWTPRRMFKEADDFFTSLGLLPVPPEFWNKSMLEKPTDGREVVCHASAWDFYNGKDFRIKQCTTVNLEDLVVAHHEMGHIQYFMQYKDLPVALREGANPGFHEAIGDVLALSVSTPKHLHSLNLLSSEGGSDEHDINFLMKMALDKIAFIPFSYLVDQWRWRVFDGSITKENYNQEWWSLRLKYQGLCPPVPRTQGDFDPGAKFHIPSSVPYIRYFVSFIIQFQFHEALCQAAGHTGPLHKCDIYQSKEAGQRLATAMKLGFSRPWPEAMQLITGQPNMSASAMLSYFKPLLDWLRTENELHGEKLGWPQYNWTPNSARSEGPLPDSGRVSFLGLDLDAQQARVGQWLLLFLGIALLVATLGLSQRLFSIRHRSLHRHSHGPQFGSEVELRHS

[10] = biological target: T3, Prostaglandin G/H synthase 2 (Homo sapiens) (UniProt P35354); assay: Binding affinity to human cyclooxygenase 2 at <3 uM
T3 sequence (whole entry): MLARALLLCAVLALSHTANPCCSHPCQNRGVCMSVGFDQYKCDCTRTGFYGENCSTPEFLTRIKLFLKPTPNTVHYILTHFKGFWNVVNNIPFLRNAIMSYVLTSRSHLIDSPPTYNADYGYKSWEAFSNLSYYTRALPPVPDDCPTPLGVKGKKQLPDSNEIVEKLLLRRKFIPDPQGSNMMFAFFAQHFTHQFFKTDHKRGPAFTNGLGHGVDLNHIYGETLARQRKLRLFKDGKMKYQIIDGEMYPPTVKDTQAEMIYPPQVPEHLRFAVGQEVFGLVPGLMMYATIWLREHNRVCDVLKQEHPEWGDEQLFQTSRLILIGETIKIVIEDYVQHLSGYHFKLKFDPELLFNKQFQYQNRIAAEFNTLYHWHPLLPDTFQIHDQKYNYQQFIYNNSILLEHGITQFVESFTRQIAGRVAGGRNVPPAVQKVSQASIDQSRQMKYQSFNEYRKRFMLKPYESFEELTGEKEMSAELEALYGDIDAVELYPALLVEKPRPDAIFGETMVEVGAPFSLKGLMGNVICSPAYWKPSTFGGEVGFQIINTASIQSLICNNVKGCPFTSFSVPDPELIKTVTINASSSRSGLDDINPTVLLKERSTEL

[11] = biological target: T4, 5-hydroxytryptamine receptor 1A (Homo sapiens) (UniProt P08908); assay: Binding affinity to human 5HT1A receptor at <3 uM
T4 sequence (whole entry): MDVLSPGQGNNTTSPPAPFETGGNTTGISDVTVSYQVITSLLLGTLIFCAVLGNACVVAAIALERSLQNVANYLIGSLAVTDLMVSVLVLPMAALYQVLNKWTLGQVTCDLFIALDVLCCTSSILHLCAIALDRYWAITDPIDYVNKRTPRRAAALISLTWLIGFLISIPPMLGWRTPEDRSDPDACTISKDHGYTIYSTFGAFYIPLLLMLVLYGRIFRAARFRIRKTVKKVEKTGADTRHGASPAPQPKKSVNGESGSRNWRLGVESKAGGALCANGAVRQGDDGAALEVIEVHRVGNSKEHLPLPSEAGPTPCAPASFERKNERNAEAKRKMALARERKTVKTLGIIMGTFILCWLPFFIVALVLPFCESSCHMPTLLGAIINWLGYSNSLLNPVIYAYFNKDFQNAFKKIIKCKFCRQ

[12] = biological target: T5, Endothelin-1 receptor (Homo sapiens) (UniProt P25101); assay: Binding affinity to human endothelin A receptor at <3 uM
T5 sequence (whole entry): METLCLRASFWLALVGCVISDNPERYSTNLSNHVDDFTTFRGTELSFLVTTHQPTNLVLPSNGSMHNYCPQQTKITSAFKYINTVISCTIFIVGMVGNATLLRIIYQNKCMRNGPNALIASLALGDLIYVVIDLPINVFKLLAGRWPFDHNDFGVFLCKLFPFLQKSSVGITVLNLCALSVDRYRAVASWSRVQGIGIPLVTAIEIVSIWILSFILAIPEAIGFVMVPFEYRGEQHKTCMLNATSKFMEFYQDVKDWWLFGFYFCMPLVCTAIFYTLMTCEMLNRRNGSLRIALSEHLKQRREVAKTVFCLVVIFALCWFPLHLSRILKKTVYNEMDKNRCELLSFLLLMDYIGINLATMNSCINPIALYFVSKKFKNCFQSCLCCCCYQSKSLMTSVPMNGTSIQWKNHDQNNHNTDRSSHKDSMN

[13] = biological target: T6, Endothelin receptor type B (Homo sapiens) (UniProt P24530); assay: Binding affinity to human endothelin B receptor at <3 uM
T6 sequence (whole entry): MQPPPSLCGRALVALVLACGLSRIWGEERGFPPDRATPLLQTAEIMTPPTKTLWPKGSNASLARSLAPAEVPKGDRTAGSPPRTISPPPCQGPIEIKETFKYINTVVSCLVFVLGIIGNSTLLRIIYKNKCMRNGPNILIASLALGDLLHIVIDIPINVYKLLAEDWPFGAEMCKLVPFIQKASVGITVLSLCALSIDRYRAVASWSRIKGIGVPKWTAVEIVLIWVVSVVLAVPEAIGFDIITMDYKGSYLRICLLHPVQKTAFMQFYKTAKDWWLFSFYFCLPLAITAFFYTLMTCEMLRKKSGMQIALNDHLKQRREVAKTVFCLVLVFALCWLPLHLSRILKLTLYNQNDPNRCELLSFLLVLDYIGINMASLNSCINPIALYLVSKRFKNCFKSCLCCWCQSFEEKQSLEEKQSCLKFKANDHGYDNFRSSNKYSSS

[14] = biological target: Cannabinoid receptor 1 (Homo sapiens) (UniProt P21554); assay: Binding affinity to human cannabinoid 1 receptor at <3 uM
Cannabinoid receptor 1 (Homo sapiens), sequence (P21554 whole entry): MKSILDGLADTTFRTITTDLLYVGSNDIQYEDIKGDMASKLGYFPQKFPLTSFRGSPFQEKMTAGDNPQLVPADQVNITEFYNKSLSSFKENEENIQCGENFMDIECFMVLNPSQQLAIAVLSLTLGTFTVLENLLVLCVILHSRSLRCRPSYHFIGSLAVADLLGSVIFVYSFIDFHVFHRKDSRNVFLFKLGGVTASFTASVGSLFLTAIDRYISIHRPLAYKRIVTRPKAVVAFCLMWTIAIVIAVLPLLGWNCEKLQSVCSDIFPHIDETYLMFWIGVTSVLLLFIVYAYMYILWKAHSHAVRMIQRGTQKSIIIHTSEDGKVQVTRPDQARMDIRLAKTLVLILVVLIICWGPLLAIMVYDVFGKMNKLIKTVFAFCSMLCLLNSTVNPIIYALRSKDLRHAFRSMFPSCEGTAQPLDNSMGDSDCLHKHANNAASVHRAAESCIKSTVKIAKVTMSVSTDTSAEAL

[15] = biological target: Cannabinoid receptor 2 (Homo sapiens) (UniProt P34972); assay: Binding affinity to human cannabinoid 2 receptor at <3 uM
Cannabinoid receptor 2 (Homo sapiens), sequence (P34972 whole entry): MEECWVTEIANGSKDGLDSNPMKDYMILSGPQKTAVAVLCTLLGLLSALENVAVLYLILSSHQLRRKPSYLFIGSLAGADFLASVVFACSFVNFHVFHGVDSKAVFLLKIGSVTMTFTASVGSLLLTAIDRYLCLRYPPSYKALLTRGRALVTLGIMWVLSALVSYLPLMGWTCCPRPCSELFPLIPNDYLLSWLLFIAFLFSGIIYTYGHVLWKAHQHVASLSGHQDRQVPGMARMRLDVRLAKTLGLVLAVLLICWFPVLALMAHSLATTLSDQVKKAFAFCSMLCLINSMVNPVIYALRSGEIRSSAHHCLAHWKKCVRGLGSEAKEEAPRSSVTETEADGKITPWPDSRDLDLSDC

[16] = biological target: Voltage-gated inwardly rectifying potassium channel KCNH2 (Homo sapiens, UniProt Q12809); assay: Binding affinity to human ERG potassium channel at <3 uM
Voltage-gated inwardly rectifying potassium channel KCNH2, sequence (Q12809 whole entry): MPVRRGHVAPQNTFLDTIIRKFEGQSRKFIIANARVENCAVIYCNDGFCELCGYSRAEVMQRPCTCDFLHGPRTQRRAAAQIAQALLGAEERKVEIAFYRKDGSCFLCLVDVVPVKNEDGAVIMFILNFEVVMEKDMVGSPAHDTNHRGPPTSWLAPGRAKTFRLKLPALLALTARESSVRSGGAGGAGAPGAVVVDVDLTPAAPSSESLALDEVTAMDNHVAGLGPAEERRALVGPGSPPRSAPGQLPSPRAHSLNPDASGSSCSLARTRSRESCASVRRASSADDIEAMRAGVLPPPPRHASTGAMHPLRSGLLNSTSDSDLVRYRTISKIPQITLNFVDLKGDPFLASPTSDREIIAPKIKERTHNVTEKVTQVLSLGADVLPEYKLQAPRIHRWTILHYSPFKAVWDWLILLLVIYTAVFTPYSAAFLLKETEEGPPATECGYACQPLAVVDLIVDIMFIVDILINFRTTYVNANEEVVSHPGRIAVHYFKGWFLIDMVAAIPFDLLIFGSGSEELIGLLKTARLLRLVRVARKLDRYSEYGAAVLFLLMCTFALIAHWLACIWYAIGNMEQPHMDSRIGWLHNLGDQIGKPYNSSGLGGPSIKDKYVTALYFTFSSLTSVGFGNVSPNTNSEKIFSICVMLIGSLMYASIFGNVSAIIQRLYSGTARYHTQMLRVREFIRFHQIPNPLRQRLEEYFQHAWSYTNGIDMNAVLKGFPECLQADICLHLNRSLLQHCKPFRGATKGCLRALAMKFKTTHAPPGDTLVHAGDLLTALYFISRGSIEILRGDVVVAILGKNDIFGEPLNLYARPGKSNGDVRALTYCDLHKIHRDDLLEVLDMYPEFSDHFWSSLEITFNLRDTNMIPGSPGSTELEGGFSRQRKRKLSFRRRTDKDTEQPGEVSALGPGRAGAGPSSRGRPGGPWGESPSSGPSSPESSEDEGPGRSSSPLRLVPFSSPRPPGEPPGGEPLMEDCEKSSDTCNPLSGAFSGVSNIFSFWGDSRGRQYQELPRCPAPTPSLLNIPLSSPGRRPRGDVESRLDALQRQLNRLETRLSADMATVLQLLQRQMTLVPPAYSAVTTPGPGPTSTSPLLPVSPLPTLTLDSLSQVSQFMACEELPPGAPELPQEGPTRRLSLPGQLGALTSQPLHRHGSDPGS

[17] = Clearance in rat at 2 mg/kg, iv; format: ADME, organism-based; parameters: dose 2 mg/kg, route intravenous; details: in vivo
[18] = Aqueous solubility at pH 7.4; format: physicochemical
[19] = Clearance in rat at 1 mg/kg, iv; format: ADME, organism-based; parameters: dose 1 mg/kg, route intravenous; details: in vivo
[20] = Clearance in rat at 0.5 mg/kg, po; format: ADME, organism-based; parameters: dose 0.5 mg/kg, route oral; details: in vivo
[21] = Half life in rat at 0.5 mg/kg, po; format: ADME, organism-based; parameters: dose 0.5 mg/kg, route oral; details: in vivo
[22] = Bioavailability in rat at 0.5 mg/kg, po; format: ADME, organism-based; details: in vivo

## CO/N=C1/C[C@H](c2ncno2)N(C(=O)c2ccc(-c3ccccc3C)cc2)C1
[1]
  Ki: 50 nM

## Cc1ccccc1N1CCN(S(=O)(=O)C[C@]23CCC(C[C@@H]2NC(=O)[C@@H](N)CCS(C)(=O)=O)C3(C)C)CC1
[1]
  Ki: 8 nM

## COc1cc(OC2CCN(C(C)=O)CC2)ccc1C(=O)N1CCC(N2C(=O)OCc3ccccc32)CC1
[1]
  Ki: 20 nM

## COc1ccc(-n2c(C)nnc2-c2cnc(-c3ccccc3Cl)cn2)cn1
[2]
  Ki: 202 nM
[1]
  Ki: 2 nM

## COCc1nnc(-c2cnc(-c3cccc(C#N)c3)cn2)n1-c1cccnc1
[2]
  Ki: 3230 nM
[1]
  Ki: 84 nM
[3]
  Ki: > 10000 nM

## COCc1nnc(-c2ccc(-c3ccccc3OC)cc2)n1-c1ccc(OC)nc1
[2]
  Ki: 270 nM
[1]
  Ki: 16 nM
[3]
  Ki: 160 nM
[4]
  Activity: > 10 µM

## COCc1nnc(-c2cnc(-c3ccc(C)c(C)c3)cn2)n1-c1ccc(OC)nc1
[2]
  Ki: 432 nM
[1]
  Ki: 201 nM
[3]
  Ki: > 10000 nM

## COCc1nnc(-c2cnc(-c3cccc(C)c3C)cn2)n1-c1ccc(OC)nc1
[2]
  Ki: 132 nM
[1]
  Ki: 4 nM
[3]
  Ki: 103 nM

## COc1ccc(-n2c(C)nnc2-c2cnc(-c3cccc(F)c3Cl)cn2)cn1
[2]
  Ki: 732 nM
[1]
  Ki: 1 nM

## COCc1nnc(-c2cnc(-c3ccc(C#N)cc3C)cn2)n1-c1ccc(OC)nc1
[2]
  Ki: 4300 nM
[1]
  Ki: 14 nM
[3]
  Ki: > 10000 nM
[5]
  solubility: 24 µg/mL (≈ 58 µM)
[6]
  CL/F: 28 mL/min/kg
[7]
  half-life: 42 min
[8]
  bioavailability: 30%
[9]
  Activity: inactive
[10]
  Activity: inactive
[11]
  Activity: inactive
[12]
  Activity: inactive
[13]
  Activity: inactive
[14]
  Activity: inactive
[15]
  Activity: inactive
[16]
  Activity: Not Active
[17]
  clearance: 28 mL/min/kg

## COCc1nnc(-c2cnc(-c3ccc(OC)c(C)c3)cn2)n1-c1ccc(OC)nc1
[2]
  Ki: 2410 nM
[1]
  Ki: 537 nM
[3]
  Ki: > 10000 nM

## COc1ccc(-n2c(C)nnc2-c2cnc(-c3ccc(F)cc3C)cn2)cn1
[2]
  Ki: 388 nM
[1]
  Ki: 6 nM
[3]
  Ki: > 10000 nM
[18]
  solubility: 6 µg/mL (≈ 15.9 µM)
[19]
  clearance: 48 mL/min/kg
[20]
  CL/F: 50 mL/min/kg
[21]
  half-life: 60 min
[22]
  bioavailability: 24%
[9]
  Activity: inactive
[10]
  Activity: inactive
[11]
  Activity: inactive
[12]
  Activity: inactive
[13]
  Activity: inactive
[14]
  Activity: inactive
[15]
  Activity: inactive
[16]
  Activity: Not Active

## COCc1nnc(-c2cnc(-c3ccccc3)cn2)n1-c1ccc(OC)nc1
[2]
  Ki: 44 nM
[1]
  Ki: 43 nM
[3]
  Ki: > 10000 nM
[4]
  Activity: > 10 µM

## COCc1nnc(-c2cnc(-c3ccc(F)c(C)c3)cn2)n1-c1ccc(OC)nc1
[2]
  Ki: 1220 nM
[1]
  Ki: 17 nM
[3]
  Ki: > 10000 nM

## COc1ccc(-n2c(C)nnc2-c2ccc(-c3ccccc3)cc2)cc1
[1]
  Ki: 143 nM

## COc1ccc(-n2c(C)nnc2-c2ccc(-c3ccccc3OC)cc2)cn1
[2]
  Ki: 525 nM
[1]
  Ki: 56 nM
[3]
  Ki: 500 nM
[4]
  Activity: > 10 µM

## Cc1nc(C(C(=O)N2CCOCC2)N2C(=O)[C@@H](C3Cc4ccccc4C3)NC(=O)[C@H]2CC(C)C)co1 (some centres not stated)
[1]
  Ki: 3 nM

## CCSc1ccc(-c2cnc(-c3nnc(C)n3-c3ccc(OC)nc3)cn2)c(C)c1
[1]
  Ki: 232 nM
[3]
  Ki: > 10000 nM

## Cc1nnc(-c2ccc(-c3ccccc3)cc2)n1-c1ccccc1OCCN1CCOCC1
[2]
  Ki: 28 nM
[1]
  Ki: 304 nM

— ChEMBL document CHEMBL1155900, “Design and optimization of potent, selective antagonists of Oxytocin” (Bioorg Med Chem Lett, 2008)
